Assay [1] deals with COVID-19. Particulars: COVID-19 patients, stage-2 clinical trial; cited from earlier work.
The test system of assay [2] is COVID-19. Particulars: randomized clinical trials; cited from earlier work.
The test system of another assay is CD8^+Tc. Briefly: SARS-CoV-2 specific peptide activation of COVID(+) PBMCs in presence or absence of Mdivi-1, flow cytometry of CD8+Tc. In kind it is cell-based, human. Particulars: 20 μM Mdivi-1 vs vehicle, 96 hr, CD8a SARS-CoV-2 megapool peptide, PBMCs from COVID-19(+) patients. Here is the method:
(§1) PBMCs (0.5×10^6 cells) were first stained with live/dead in PBS for 15 min, washed with Flow Cytometry Staining Buffer (FACS Buffer), and stained with surface markers in ice-cold FACS buffer at 4° C. for 30 min. PBMCs were then washed twice with FACS buffer and stained with secondary antibodies for 15 minutes. Samples were fixed and permeabilized using Fixation/Permeabilization buffer (20 min) at room temperature and washed with ice-cold FACS buffer. PBMCs were then stained with intracellular antibodies at 37° C. for 45 min in permeabilization buffer. Samples were washed once with permeabilization buffer before being resuspended in FACS buffer for flow cytometric analysis using Cytoflex system. Data was then analyzed by Flowjo™v10.
(§2) PBMCs (5×10^5) were stimulated with […] of CD8a SARS-CoV-2 megapool peptide^92 in the presence of absence of 20 μM Mdivi-1 at 37° C., 5% C02 for 96 hr.
(§3) FIGS. 15A-F. Mitophagy inhibition restores CD8^+Tc and SARS-CoV-2 specific CD8^+Tc function. PBMCs from 5 COVID-19(+) patients were activated with SARS-CoV-2 megapool CD8a peptide (see Methods) in the presence or absence of MDIVI-1 (20 μM). One sample was excluded from analysis due to critically low CD8^+Tc count. […] Two-tailed student's T-test was used. *p<0.05, **p<0.01, and ***p<0.001.

The next assay relates to CD8^+TM. The assay is described as follows: SARS-CoV-2 specific peptide activation of COVID(+) PBMCs in presence or absence of Mdivi-1, flow cytometry of CD8+TM. The class given is cell-based, human. Particulars: 20 μM Mdivi-1 vs vehicle, 96 hr, CD8a SARS-CoV-2 megapool peptide, PBMCs from COVID-19(+) patients. Here is the method: as §1, §2, §3
Background: Flow cytometry measures light scatter and fluorescence of single cells or particles in a stream.

The subject of a further assay is SARS-CoV-2. Particulars: virally infected cells; cited from earlier work.
The subject of assay [3] is SARS-CoV-2 specific CD8^+Tc. Particulars: through normalizing cellular metabolism; cited from earlier work.

As for `O=CC[C@@H](O)[C@H](O)[C@H](O)CO` [2-DG, 2-deoxy-glucose], the patient outcomes in the assay on COVID-19 [1] is “successful in improving patient outcomes”.

On to `CCN(CCO)CCCC(C)Nc1ccnc2cc(Cl)ccc12` (stereo not drawn) [Hydroxychloroquine], for which the “efficacy in COVID-19” value with COVID-19 [2] was “ineffective”.

Regarding `COc1cc(-n2c(=S)[nH]c3ccccc3c2=O)c(Cl)cc1Cl` [Mdivi-1], the “generation of SARS-CoV-2-specific CD137^+ cells amongst CD8+Tc” value in the assay on CD8^+Tc (FIG. 15B) is reported as “improved”. The “proliferation (Ki-67^+ cells) of CD8+Tc” value with CD8^+Tc (FIG. 15C) is “induced”. In addition, in the assay with CD8^+Tc (FIG. 15D), the “IFNy-secreting capacity of CD8^+Tc” value is “induced”. Besides, the “Glut-1 expression in CD8^+TM” value in the assay with CD8^+TM is reported as “reduced”. Moreover, in the assay on CD8^+TM (FIG. 15E), the “CD8^+TM proliferation (Ki-67)” value is “augmented”. Moreover, the SARS-CoV-2 replication result with SARS-CoV-2 is reported as “effectively reduce”.

Consider “cyclophilin A: found to restore SARS-CoV-2 specific CD8+Tc function through normalizing cellular metabolism”, for which the “SARS-CoV-2 specific CD8^+Tc function” value in assay [3] is on record as “restore”.

Values taken from US20250201406A1, “METHOD AND BIOMARKER FOR PREDICTING SEVERITY OF COVID-19 DISEASE AND METHOD FOR THERAPEUTIC INTERVENTION IN COVID-19 DISEASE” (priority 2022, published 2025).
